Here are results for 13 compounds from PMC6271891, “Exploration of Piperidinols as Potential Antitubercular Agents” (Molecules, 2014).

≈ marks a conversion by molar mass, not a printed value. Where “and” joins values, the source holds several entries; their conditions need not be identical. Identical values can stand only once. Like-named read-outs stand apart in the source and are kept apart here. A value given as a limit tells only on which side of the number the result lay.

In data set [1] the test system is M. tuberculosis strain H37Rv. As to the kind of experiment: Mycobacterial growth inhibition, spot culture on solid medium, M. tuberculosis H37Rv. Format: cell-based. The note with it: Mycobacterium tuberculosis, 336 h, read-out: MIC M. tuberculosis.
Data set [2] addresses T1, MMNAT (Mycobacterium marinum, UniProt B2HIZ6). As to the kind of experiment: Time-dependent (irreversible) inactivation of MMNAT by the piperidinols. The settings on record: for kobs: 24 °C, mean ± S.D. of triplicate; for t1/2, apparent inactivation half-life: t1/2 = 0.693/kobs. Format: biochemical. The method, then:
(§1) An assay for measuring the formation of CoA [23] was modified and used to determine the activity of the enzyme in the presence of potential inhibitors exactly as described previously. Irreversible inhibition, progressive with time was measured for the piperidinol inhibitors by the protocol described in [13] and the values of the apparent first order rate constant (kobs) were determined using the Kitz and Wilson model. Adduct formation was determined as previously described by mass spectroscopy analysis.
Figure S1. The time-dependent inhibition of the MMNAT by the piperidinols (A) compounds 1, 3, 4, 6 at 11.9 μM concentration (B) 5, 7 at 5.9 μM concentration and (C) 8, […]
Semi-logarithmic plots showing the time-dependent inactivation of MMNAT by (A) compounds 1, 3, 4, 6 at 11.9 μM concentration (B) 5, 7 at 5.9 μM concentration and (C) 8, 9 (11.9 μM), 10 (23.8 μM) and 11 (5.9 μM). The enzyme activity was measured using the protocol described in [1]. The results are presented as the mean ± S.D. of triplicate measurements. The error bars are within the symbols.
The residual activity is shown as a percentage of a control. The data were fitted against the incubation time using the Semilog line (X is linear, Y is Log) module of GraphPad Prism 5.0. The slope of each line is equivalent to (−kobs/2.303) at each inhibitor concentration. […]

Data set [3] has as its system RAW 264.7 cells. The note with it: up to 50 μg/mL inhibitor concentration.
The target of data set [4] is T1, MMNAT. As to the kind of experiment: NAT inhibition assay (CoA formation), MMNAT. It is filed as biochemical. The settings on record: for inhibition at 50 µM: read-out: MMNAT % Inhibition. As to the method: (§2) The NAT enzymes from M. smegmatis, S. typhimurium, P. aeruginosa, M. marinum, M. tuberculosis, hamster NAT2 [45] and human NAT1 [46] were produced as recombinant proteins, purified as previously described and stored at −80 in 20 mM Tris-HCl pH 8 containing 1 mM dithiothreitol and 5% glycerol and thawed and used within 1–5 h.
as §1

In data set [5] the test system is M. bovis BCG. As to the kind of experiment: microbe, parasite or virus in culture. Format: cell-based. The note with it: Mycobacterium tuberculosis variant bovis BCG, 336 h, read-out: MIC M. bovis BCG.
The subject of data set [6] is mycobacteria. The arrangement: method as in PMID 23285185. The settings on record: cited from earlier work.
Data set [7] has as its target T2, TBNAT (Mycobacterium tuberculosis, UniProt P9WJI5).
T2 construct: made in house
Briefly: NAT inhibition assay (CoA formation), TBNAT. Format: biochemical, M. tuberculosis. The note with it: for inhibition at 50 µM: read-out: TBNAT % Inhibition; for IC50: inhibitor 0–250 μM. The method, then: as §2, §1

The test system of data set [8] is M. bovis BCG str. Pasteur (ATCC 35734). As to the kind of experiment: microbe, parasite or virus in culture. The settings on record: Mycobacterium tuberculosis variant bovis BCG, read-out: MIC against M. bovis BCG. Format: cell-based.
[9] abbreviates: strain H37Rv, solid medium 7H10-OADC, no growth after 2 weeks.
Where [10] appears, read: 5ASA as substrate, mean ± S.D. of triplicate, read-out: MMNAT IC50 5ASA.
[11] abbreviates: 50 μM inhibitor, 150 μM HLZ and 120 μM Ac-CoA, mean ± S.D. of triplicate.
Setting [12] is: 150 μM HLZ and 120 μM Ac-CoA, mean ± S.D. of triplicate.
[13] abbreviates: 150 μM HLZ and 120 μM Ac-CoA, inhibitor 0–250 μM, mean ± S.D. of triplicate, read-out: MMNAT IC50 HLZ.

T1 sequence (B2HIZ6 entry or part of it): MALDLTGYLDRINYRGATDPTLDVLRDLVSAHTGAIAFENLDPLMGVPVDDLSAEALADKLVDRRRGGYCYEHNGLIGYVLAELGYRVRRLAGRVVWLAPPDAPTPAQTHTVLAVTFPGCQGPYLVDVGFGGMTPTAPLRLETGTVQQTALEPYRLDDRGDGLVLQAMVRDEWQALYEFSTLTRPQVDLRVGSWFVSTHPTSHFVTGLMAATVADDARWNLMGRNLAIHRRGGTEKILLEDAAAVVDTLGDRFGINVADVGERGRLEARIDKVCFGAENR
T2 sequence (P9WJI5 whole entry): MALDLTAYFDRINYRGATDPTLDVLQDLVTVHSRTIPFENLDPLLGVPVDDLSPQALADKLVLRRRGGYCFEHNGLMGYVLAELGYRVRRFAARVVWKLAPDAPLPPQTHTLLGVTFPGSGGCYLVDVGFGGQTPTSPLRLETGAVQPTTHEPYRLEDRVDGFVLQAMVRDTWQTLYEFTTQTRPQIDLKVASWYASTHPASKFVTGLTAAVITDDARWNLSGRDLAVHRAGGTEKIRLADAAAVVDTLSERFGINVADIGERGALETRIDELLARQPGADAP

Consider `CN1CCC(O)(c2ccccc2)C(C(=O)c2ccccc2)C1` (stereo not shown) [Compound 1], for which the values for the MIC in data set [1] (setting [9]) and in data set [5] were 1 to 10 µg/mL (≈ 3.39 to 33.9 µM) and 6.3 to 12.5 µg/mL (≈ 21.3 to 42.3 µM), respectively. In data set [2] (inhibitor 11.9 μM), the kobs is 9 ± 2 10^−3 min^−1. Besides, the “t1/2, apparent inactivation half-life” value in data set [2] (inhibitor 11.9 μM) is recorded as 81.5 min. The “Cytotoxic effect on RAW 264.7 cells” value in data set [3] is listed as “no cytotoxicity was observed”. Moreover, the 50% inhibitory concentration (IC50) in data set [4] (setting [10]) is 6000 ± 1000 nM. Besides, in data set [6], the “MIC (antimycobacterial)” value was less than 5 µg/mL.
As for `CN1CCC(O)(c2ccc(Cl)cc2)C(C(=O)c2ccc(Cl)cc2)C1` (stereo not shown) [Compound 2], the kobs in data set [2] (inhibitor 11.9 μM) is 110 ± 2 10^−3 min^−1. For the same compound, the “t1/2, apparent inactivation half-life” value in data set [2] (inhibitor 11.9 μM) is 6.3 min. Besides, the results for the inhibition at 50 µM in data set [7] (setting [11]) and in data set [4] (setting [11]) were 98 ± 1% and 103 ± 2%, respectively. In addition, the IC50 in data set [7] (setting [12]) came out at 1600 ± 100 nM; in data set [4] (setting [13]), 160 ± 10 nM; in data set [4] (setting [10]), 1400 ± 600 nM. Besides, the MIC in data set [5] is 6.3 to 12.5 µg/mL (≈ 17.3 to 34.3 µM).
Regarding `CN1CCC(O)(c2ccc(Br)cc2)C(C(=O)c2ccc(Br)cc2)C1` (stereo not shown) [Compound 3], the figures for the MIC in data set [1] (setting [9]) and in data set [5] were 5 to 10 µg/mL (≈ 11 to 22.1 µM) and 6.3 to 12.5 µg/mL (≈ 13.9 to 27.6 µM), respectively. Also, the kobs in data set [2] (inhibitor 11.9 μM) was 74 ± 7 10^−3 min^−1. The “t1/2, apparent inactivation half-life” value in data set [2] (inhibitor 11.9 μM) came out at 9.4 min. In addition, the results for the inhibition at 50 µM in data set [7] (setting [11]) and in data set [4] (setting [11]) were 98 ± 3% and 99 ± 1%, respectively. For the same compound, the IC50 in data set [7] (setting [12]) is 2900 ± 400 nM; in data set [4] (setting [13]) it was 80 ± 10 nM; in data set [4] (setting [10]) it was 1300 ± 400 nM.
As for `CCN1CCC(O)(c2ccccc2)C(C(=O)c2ccccc2)C1` (stereo not shown) [Compound 4], the MIC in data set [1] (setting [9]) was in the range of 5 to 10 µg/mL (≈ 16.2 to 32.3 µM); in data set [5] it was 6.3 to 12.5 µg/mL (≈ 20.4 to 40.4 µM). For the same compound, the kobs in data set [2] (inhibitor 11.9 μM) is 15 ± 1 10^−3 min^−1. For the same compound, the “t1/2, apparent inactivation half-life” value in data set [2] (inhibitor 11.9 μM) turned out to be 45.6 min. The values for the inhibition at 50 µM in data set [7] (setting [11]) and in data set [4] (setting [11]) were 72 ± 4% and 126 ± 5%, respectively. Further, the concentration for half-maximal inhibition (IC50) in data set [7] (setting [12]) is 7300 ± 300 nM; in data set [4] (setting [13]), 1900 nM; in data set [4] (setting [10]) it was 8000 ± 1000 nM.
As for `CCN1CCC(O)(c2ccc(F)cc2)C(C(=O)c2ccc(F)cc2)C1` (stereo not shown) [Compound 5], the MIC in data set [1] (setting [9]) is 5 to 10 µg/mL (≈ 14.5 to 29 µM); in data set [5] it was 6.3 to 12.5 µg/mL (≈ 18.2 to 36.2 µM). Moreover, the kobs in data set [2] (inhibitor 5.9 μM) is 638 ± 120 10^−3 min^−1. In data set [2] (inhibitor 5.9 μM), the “t1/2, apparent inactivation half-life” value amounted to 1.1 min. Moreover, the inhibition at 50 µM in data set [7] (setting [11]) was determined as 108 ± 1%; in data set [4] (setting [11]), 102 ± 3%. For the same compound, the half-inhibitory concentration (IC50) is 4400 nM in data set [7] (setting [12]), 500 nM in data set [4] (setting [13]) and 1300 ± 500 nM in data set [4] (setting [10]).
`CCCCN1CCC(O)(c2ccccc2)C(C(=O)c2ccccc2)C1` (stereo not shown) [Compound 6]: the MIC fell in the range of 1 to 5 µg/mL (≈ 2.96 to 14.8 µM) in data set [1] (setting [9]) and 6.3 to 12.5 µg/mL (≈ 18.7 to 37 µM) in data set [5]. Besides, the kobs in data set [2] (inhibitor 11.9 μM) is 104 ± 8 10^−3 min^−1. The “t1/2, apparent inactivation half-life” value in data set [2] (inhibitor 11.9 μM) came out at 6.6 min. The inhibition at 50 µM in data set [7] (setting [11]) worked out at 100 ± 3%; in data set [4] (setting [11]), 102 ± 3%. The figures for the IC50 in data set [7] (setting [12]), in data set [4] (setting [13]) and in data set [4] (setting [10]) were 6900 ± 400 nM, 2600 ± 1000 nM and 5000 ± 400 nM, respectively.
Take `O=C(c1ccccc1)C1CN(C2CCCCC2)CCC1(O)c1ccccc1` (stereo not shown) [Compound 7]: the MIC in data set [1] (H37RV) was 1 to 5 µg/mL (≈ 2.75 to 13.8 µM). In data set [2] (inhibitor 5.9 μM), the kobs was 573 ± 25 10^−3 min^−1 and the “t1/2, apparent inactivation half-life” value is reported as 1.2 min. Besides, the IC50 in data set [4] (setting [10]) stood at 1700 ± 200 nM. Also, the MIC in data set [5] was 6.3 to 12.5 µg/mL (≈ 17.3 to 34.4 µM).
For `O=C(c1ccccc1)C1CN(Cc2ccccc2)CCC1(O)c1ccccc1` (stereo not shown) [Compound 8], the MIC in data set [1] (setting [9]) lay within 0 to 1 µg/mL; in data set [5] it was 6.3 to 12.5 µg/mL (≈ 17 to 33.6 µM). The kobs in data set [2] (inhibitor 11.9 μM) was 10 ± 1 10^−3 min^−1. For the same compound, in data set [2] (inhibitor 11.9 μM), the “t1/2, apparent inactivation half-life” value came out at 71.4 min. For the same compound, the inhibition at 50 µM in data set [7] (setting [11]) was determined as 58 ± 2%; in data set [4] (setting [11]), 101 ± 1%. In addition, the IC50 in data set [4] (setting [13]) amounted to 4100 ± 400 nM.
As to `O=C(c1ccccc1)C1CN(C2CCCO2)CCC1(O)c1ccccc1` (stereo not shown) [Compound 9], the MIC in data set [1] (setting [9]) lay within 0 to 1 µg/mL. For the same compound, the kobs in data set [2] (inhibitor 11.9 μM) is 163 ± 39 10^−3 min^−1. In addition, the “t1/2, apparent inactivation half-life” value in data set [2] (inhibitor 11.9 μM) was found to be 4.2 min. The inhibition at 50 µM came to 51 ± 3% in data set [7] (setting [11]) and 100.8 ± 0.5% in data set [4] (setting [11]). Besides, the IC50 in data set [4] (setting [13]) worked out at 2500 ± 300 nM; in data set [4] (setting [10]), 9000 ± 900 nM.
On to `O=C(c1ccccc1)C1CN(C2CCS(=O)(=O)C2)CCC1(O)c1ccccc1` (stereo not shown) [Compound 10], for which the kobs in data set [2] (inhibitor 23.8 μM) was 19 ± 1 10^−3 min^−1. In addition, the “t1/2, apparent inactivation half-life” value in data set [2] (inhibitor 23.8 μM) is 37.1 min. The inhibition at 50 µM in data set [7] (setting [11]) was found to be 47 ± 2%; in data set [4] (setting [11]), 99 ± 0.7%. Besides, the IC50 in data set [4] (setting [13]) is 13000 ± 1000 nM; in data set [4] (setting [10]) it was more than 30000 nM. Further, the MIC in data set [5] is 3.1 to 6.3 µg/mL (≈ 7.76 to 15.8 µM).
As for `CC1(C)CC(N2CCC(O)(c3ccccc3)C(C(=O)c3ccccc3)C2)CC(C)(C)N1` (stereo not shown) [Compound 11], the MIC in data set [1] (setting [9]) is 1 to 5 µg/mL (≈ 2.38 to 11.9 µM). Also, in data set [2] (inhibitor 5.9 μM), the kobs is recorded as 34 ± 1 10^−3 min^−1 and the “t1/2, apparent inactivation half-life” value was found to be 20.2 min. The “Cytotoxic effect on RAW 264.7 cells” value in data set [3] is listed as “no cytotoxicity was observed”. Further, the IC50 in data set [4] (setting [10]) came to 1100 ± 300 nM. Besides, the MIC in data set [5] fell in the range of 6.3 to 12.5 µg/mL (≈ 15 to 29.7 µM).
Regarding `OC(CCN1CCCCC1)c1ccc2c(c1)OCO2` (stereo not shown) [Compound 15], the MIC in data set [8] is 125 µM to 250 µM and 33 µg/mL to 66 µg/mL. Also, the figures for the IC50 in data set [7] (setting [12]) and in data set [4] (setting [13]) were 20000 ± 3000 nM and 1000 ± 100 nM, respectively. Moreover, the values for the inhibition at 50 µM in data set [7] and in data set [4] were 86 ± 2% and 103 ± 3%, respectively.
On to `C=CCC(O)(CCN1CCOCC1)c1ccc(F)cc1` (stereo not shown) [Compound 16], for which the inhibition at 50 µM is -14 ± 3% in data set [7] and 99 ± 1% in data set [4]. The 50% inhibitory concentration (IC50) in data set [4] (setting [13]) stood at 6400 ± 600 nM.
